#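 Values below derive from 48-hour exposures of cells grown in 96-well plates, with endpoints linearly interpolated between the two concentrations bracketing the appropriate inhibition level. At the GI50, growth is halved.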 The source made the active and inactive calls. No stated cut-off is given here; in the data, active = GI50 up to about 1.1 µM and inactive = higher. Peptide text beside a SMILES is read from it. * marks the point of attachment. Boc = CC(C)(C)OC(=O)*; OBn = c1ccc(CO*)cc1
# Tests used:
# Test in all cases: inhibition of tumour cell growth, NCI panel, 48 h
# [1] = tested on: MDA-MB-435
# [2] = tested on: HOP-62
# [3] = tested on: NCI-H460
# [4] = tested on: SW-620
# [5] = tested on: T47D
# [6] = tested on: OVCAR-5
# [7] = tested on: LOX IMVI
# [8] = tested on: IGROV-1
# [9] = tested on: DU-145
# [10] = tested on: SNB-19
# [11] = tested on: M14
# [12] = tested on: PC-3
# [13] = tested on: SK-MEL-5
# [14] = tested on: OVCAR-8
# [15] = tested on: HCT-116
# [16] = tested on: SF-268
# [17] = tested on: CAKI-1
# [18] = tested on: OVCAR-4
# [19] = tested on: EKVX
# [20] = tested on: UACC-257
Structure (SMILES),GI50 [1],GI50 [2],GI50 [3],GI50 [4],GI50 [5],GI50 [6],GI50 [7],GI50 [8],GI50 [9],GI50 [10],GI50 [11],GI50 [12],GI50 [13],GI50 [14],GI50 [15],GI50 [16],GI50 [17],GI50 [18],GI50 [19],GI50 [20]
CN1C=COC1N=C1CCCCC1 (centres undefined),> 100 µM (inactive),> 100 µM (inactive),> 100 µM (inactive),3.3 µM (inactive),> 100 µM (inactive),> 100 µM (inactive),> 100 µM (inactive),> 100 µM (inactive),> 100 µM (inactive),4.02 µM (inactive),> 100 µM (inactive),> 100 µM (inactive),> 100 µM (inactive),> 100 µM (inactive),> 100 µM (inactive),> 100 µM (inactive),3.74 µM (inactive),> 100 µM (inactive),> 100 µM (inactive),–
C#CCOC(=O)C=[N+]=[N-],> 10 µM (inactive),> 10 µM (inactive),> 10 µM (inactive),> 10 µM (inactive),> 10 µM (inactive),> 10 µM (inactive),> 10 µM (inactive),> 10 µM (inactive),> 10 µM (inactive),> 10 µM (inactive),> 10 µM (inactive),> 10 µM (inactive),–,> 10 µM (inactive),> 10 µM (inactive),> 10 µM (inactive),–,–,> 10 µM (inactive),> 10 µM (inactive)
COc1cc2c(cc1OC)C13CC[N+]4(C)CC5=CCOC6CC(=O)N2C1C6C5CC34[O-] (centres undefined),> 100 µM (inactive),> 100 µM (inactive),> 100 µM (inactive),> 100 µM (inactive),> 100 µM (inactive),–,> 100 µM (inactive),> 100 µM (inactive),> 100 µM (inactive),> 100 µM (inactive),> 100 µM (inactive),> 100 µM (inactive),> 100 µM (inactive),> 100 µM (inactive),> 100 µM (inactive),> 100 µM (inactive),> 100 µM (inactive),> 100 µM (inactive),> 100 µM (inactive),> 100 µM (inactive)
CC(C)(C)OC(=O)N(CCCN)CCCCN,> 100 µM (inactive),> 100 µM (inactive),> 100 µM (inactive),> 100 µM (inactive),> 100 µM (inactive),> 100 µM (inactive),–,> 100 µM (inactive),> 100 µM (inactive),> 100 µM (inactive),> 100 µM (inactive),> 100 µM (inactive),> 100 µM (inactive),> 100 µM (inactive),> 100 µM (inactive),> 100 µM (inactive),> 100 µM (inactive),> 100 µM (inactive),> 100 µM (inactive),> 100 µM (inactive)
CC(=O)c1nc2ccccc2n1CC(=O)c1ccc([N+](=O)[O-])cc1,22 µM (inactive),5.06 µM (inactive),5.74 µM (inactive),10.6 µM (inactive),8.18 µM (inactive),–,7.26 µM (inactive),3.12 µM (inactive),31.6 µM (inactive),13.5 µM (inactive),77.1 µM (inactive),10.4 µM (inactive),–,8.49 µM (inactive),8.2 µM (inactive),30.8 µM (inactive),17.4 µM (inactive),34.8 µM (inactive),> 100 µM (inactive),33.6 µM (inactive)
CCOc1cc2c(OCc3ccccc3)cc3c4cc(OC)c(OC)cc4c[n+](C)c3c2cc1OC,0.789 µM (active),2.99 µM (inactive),4.97 µM (inactive),1.47 µM (inactive),0.446 µM (active),7.13 µM (inactive),2.07 µM (inactive),–,3.62 µM (inactive),0.385 µM (active),2.03 µM (inactive),1.66 µM (inactive),1.38 µM (inactive),2.19 µM (inactive),1.56 µM (inactive),0.492 µM (active),25.4 µM (inactive),2.04 µM (inactive),17.8 µM (inactive),1.62 µM (inactive)
CC(C)CC(NC(=O)OC(C)(C)C)C(=O)NC(CC(=O)OCc1ccccc1)C(N)=O (stereo not drawn) (Boc-Leu-Asp(OBn)-NH2; configuration not given here),> 100 µM (inactive),–,–,> 100 µM (inactive),> 100 µM (inactive),> 100 µM (inactive),> 100 µM (inactive),> 100 µM (inactive),> 100 µM (inactive),> 100 µM (inactive),> 100 µM (inactive),> 100 µM (inactive),> 100 µM (inactive),> 100 µM (inactive),> 100 µM (inactive),> 100 µM (inactive),> 100 µM (inactive),> 100 µM (inactive),> 100 µM (inactive),> 100 µM (inactive)

# From ChEMBL document CHEMBL1201862, “PubChem BioAssay data set” (2004)
